“And” between values parts separate entries of the source, which are not always exact repeats. Identical values can stand only once. Like-named read-outs stand apart in the source and are kept apart here.
Tests used:
[1] = DPPH radical assay; conditions: for time to reach plateau / steady state with DPPH•: 50 μM syringaldehyde, 12.5 μM Trolox and ascorbic acid, methanol, room temperature, 515 nm; for IC50: read-out: DPPH IC50 at 120 min, Example 15
[2] = ABTS radical cation decolorization assay; format: biochemical; conditions: for IC50: final concentration in the cuvet, read-out: concentration at which 50% inhibition of ABTS•+ was observed; for Slope of % decrease in absorbance at 6 min versus antioxidant concentration: linear regression, concentration in μM; for TEAC: slope divided by that of Trolox, % decrease in A734 at 6 min, ethanol
Source text: We have tested AO activity of G1 (13) using ABTS as a radical source using a previously reported spectroscopic assay. The AO activity of the G1 (13) was compared to those of syringaldehyde, gallic acid, and vitamin C. If the phenolic OH group is the radical scavenging site, the expected AO activity of the G1 (13) should be 4 fold higher than that of syringaldehyde and 1.3 fold higher than that of gallic acid (which has three phenolic OH groups).
ABTS radical cation decolorization assay was used as previously described (Ozgen, et al. J. Agric. Food Chem. 2006, 54, 1151-1157, incorporated herein by reference in its entirety). Like the DPPH assay, this was also a decolorization assay and measured absorbance decrease at 734 nm as the ABTS radical (ABTS•+) is quenched by the antioxidant. The solvent used for the assay was ethanol. ABTS reagent was added to 1.0 mL solvent in a cuvet to bring the absorbance to 0.7. A 10 μL sample of antioxidant was then added, mixed, and the absorbance monitored at 734 nm for 6 min. Antioxidant concentrations were 14.4 μM Trolox, 11.4 μM ascorbic acid, 15.4 μM syringaldehyde, and 3 μM compound 1. The % decrease in absorbance at 6 min was plotted against antioxidant concentrations. The gradient of the line obtained by linear regression for a given antioxidant was divided by that obtained for Trolox to yield Trolox equivalent antioxidant (TEAC) values. All samples were made in ethanol and run in triplicates and at room temperature.

[3] = FRAP assay (reduction of Fe(III) to Fe(II)); format: biochemical; design: Slope of ΔA593 versus concentration: unit not given here; conditions: for Slope of ΔA593 versus concentration: 37° C.
Procedure: The FRAP assay was performed as previously described (Pulido, et al. J. Agric. Food Chem. 2000, 48, 3396-3402, incorporated herein by reference in its entirety). In the FRAP assay, ferric was reduced by the antioxidant to ferrous via electron transfer (Benzie et al., Anal. Biochem. 1996, 239, 70-76, incorporated herein by reference in its entirety). This assay measured the redox potential of an antioxidant which is used as an estimate of antioxidant efficiency and expressed as a FRAP value. […] The compound 1 as well as the other antioxidants was dissolved in methanol. […] Reaction kinetics of the compound 1 and other antioxidants were obtained by plotting the change in slopes at various times and are shown in FIG. 18. […] This time-dependent increase in absorbance was previously reported (Pulido, et al. J. Agric. Food Chem. 2000, 48, 3396-3402, incorporated herein by reference in its entirety) and was especially significant with polyphenolic compounds. […] However, the FRAP value increased with time, reaching 2.5 in 60 min. […] J. Agric. Food Chem. 2000, 48, 3396-3402, incorporated herein by reference in its entirety). […] EC1 values, and therefore ferric reducing ability, were lower at longer reaction times as expected from the kinetic behavior of the antioxidants (Pulido, et al. J. Agric. Food Chem. 2000, 48, 3396-3402, incorporated herein by reference in its entirety).

| Compound | # of DDPH• reduced per antioxidant molecule (1/stoichiometry) [1] | Antioxidant Capacity Relative to Trolox, DPPH [1] | time to reach plateau / steady state with DPPH• ([1]; 5 μM compound 1) | IC50 [1] | Antioxidant Capacity Relative to Trolox, ABTS [2] | IC50 [2] | Slope of % decrease in absorbance at 6 min versus antioxidant concentration [2] | TEAC [2] | Antioxidant Capacity Relative to Trolox, FRAP 5 min ([3]; 5 min) | EC1 (concentration with ferric-TPTZ reducing ability equivalent to 1 mM FeSO4.7H2O) ([3]; 5 min) | FRAP value relative to Fe(II) ([3]; 5 min) | FRAP value relative to Fe(II) ([3]; 15 min) | FRAP value relative to Fe(II) ([3]; 30 min) | Antioxidant Capacity Relative to Trolox, FRAP 60 min ([3]; 60 min) | EC1 (concentration with ferric-TPTZ reducing ability equivalent to 1 mM FeSO4.7H2O) ([3]; 60 min) | FRAP value relative to Fe(II) ([3]; 60 min) | Slope of ΔA593 versus concentration ([3]; Reaction time 5 min) | Slope of ΔA593 versus concentration ([3]; Reaction time 15 min) | Slope of ΔA593 versus concentration ([3]; Reaction time 30 min) | Slope of ΔA593 versus concentration ([3]; Reaction time 60 min) | further results |
| --- | --- | --- | --- | --- | --- | --- | --- | --- | --- | --- | --- | --- | --- | --- | --- | --- | --- | --- | --- | --- | --- |
| COc1cc(CN(Cc2ccc(CN(Cc3cc(OC)c(O)c(OC)c3)Cc3cc(OC)c(O)c(OC)c3)cc2)Cc2cc(OC)c(O)c(OC)c2)cc(OC)c1O [Compound 1] | 8.8 | 4.9 | approximately 45 min | 4 µM | 8.5 | ~1.5 µM | 33.9 | 8.48 | 6.1 | 74 µM | 13.5 | 14.6 | 15.1 | 7.2 | 63 µM | 15.8 | 0.163 | 0.175 | 0.182 | 0.190 | DPPH• remaining at plateau ([1]; 5 μM compound 1): 46%; DPPH• remaining in two minutes ([1]; 5 μM compound 1): 60%; decrease in DDPH• ([1]; 5 μM solution): 60%; Antioxidant Capacity Relative to Trolox, DPPH ([1]; listed as compound 1): ~5 and 4.9; DPPH antioxidant capacity, times better than ascorbic acid ([1]; listed as compound 1): ~5 times and 4.9 times; AO activity higher than that of gallic acid ([2]; ABTS as radical source): 3 fold; AO activity higher than that of syringaldehyde ([2]; ABTS as radical source): 7 fold; AO activity higher than that of vitamin C ([2]; ABTS as radical source): 7.6 fold; ABTS, times better than ascorbic acid ([2]; based on TEAC): 9.4 times; ABTS, times better than syringaldehyde ([2]; based on TEAC): 8.7 times; FRAP, times better than ascorbic acid ([3]; 5 min): 6.7 times; Antioxidant Capacity Relative to Trolox, FRAP 5 min ([3]; 5 min, listed as compound 1): ~6 and 6.1; FRAP ratio to syringaldehyde ([3]; 5 min, listed as compound 1): ~2.6 times and 2.7 times; FRAP ratio to syringaldehyde ([3]; 60 min): 1.7 times; FRAP, times better than ascorbic acid ([3]; 60 min): 6.5 times; Antioxidant Capacity Relative to Trolox, FRAP 60 min ([3]; 60 min, listed as compound 1): ~7 and 7.2 |
| Cc1c(C)c2c(c(C)c1O)CCC(C)(C(=O)O)O2 (stereo not shown) [Trolox, 6-hydroxy-2,5,7,8-tetramethylchroman-2-carboxylic acid] | 1.8 | 1 | ≤ 2 min | 30 µM | 1 | ~10 µM | 4 | 1 | 1 | 450 µM | 2.2 | 2.2 | 2.2 | 1 | 449 µM | 2.2 | 0.0268 | 0.0269 | 0.0269 | 0.0269 | time to reach a plateau of ABTS•+ absorbance suppression ([2]; 14.4 μM Trolox, 11.4 μM ascorbic acid): one; FRAP value, did not change with time ([3]; testing period 60 min): 2.2 |

From patent US8895032B2, “Dendritic nano-antioxidants” (Central Michigan University, priority 2009, dated 2014)
